Patent publication US20240294533A1, “2-(HET)ARYL-SUBSTITUTED CONDENSED HETEROCYCLE DERIVATIVES AS PEST CONTROL AGENTS” (Bayer Aktiengesellschaft, priority 2021, published 2024)

Legend:
Format in all cases: in vivo
[1] = system: Nezara viridula; assay: Nezara viridula spray test (infected barley plants sprayed); details: 100 g ai/ha, after 4 days
Source text: Nezara viridula—Spray Test Solvent: 52.5 parts by weight of acetone • 7 parts by weight of dimethylformamide Emulsifier: alkylaryl polyglycol ether An appropriate active ingredient formulation is produced by dissolving 1 part by weight of active ingredient with the stated parts by weight of solvent and making the solution up to the desired concentration with water containing an emulsifier concentration of 1000 ppm. Further test concentrations are produced by diluting the formulation with emulsifier-containing water. If the addition of ammonium salts or/and penetrants is required, these are each added in a concentration of 1000 ppm to the formulation solution. Barley plants (Hordeum vulgare) infected with larvae of the Southern green shield bug (Nezara viridula) are sprayed with an active ingredient formulation of the desired concentration. After 4 days, efficacy in % is determined. 100% means that all of the shield bugs have been killed; 0% means that none of the shield bugs have been killed.

[2] = system: Spodoptera frugiperda; assay: Spodoptera frugiperda spray test (SPODFR), comparative; details: 168 h, cotton leaves, after 7 days, read-out: % Efficacy
Source text: Spodoptera frugtiperda—Spray Test (SPODFR) Solvent: 14 parts by weight of dimethylformamide Emulsifier: alkylaryl polyglycol ether An appropriate active ingredient formulation is produced by dissolving 1 part by weight of active ingredient with the stated parts by weight of solvent and making the solution up to the desired concentration with water containing an emulsifier concentration of 1000 ppm. Further test concentrations are produced by diluting the formulation with emulsifier-containing water. If the addition of ammonium salts or/and penetrants is required, these are each added in a concentration of 1000 ppm to the formulation solution. Cotton leaves (Gossypium hirsutum) are sprayed with an active ingredient formulation of the desired concentration and populated with caterpillars of the armyworm (Spodoptera frugiperda). After 7 days, the kill in % is determined. 100% means that all caterpillars have been killed; 0% means that none of the caterpillars have been killed.

[3] = system: Musca domestica; assay: Musca domestica test; details: 100 ppm, adult houseflies, after 2 days
Procedure: Musca domestica Test Solvent: dimethyl sulfoxide An appropriate active ingredient formulation is produced by mixing 10 mg of active ingredient with 0.5 ml of dimethyl sulfoxide and diluting the concentrate with water to the desired concentration. Vessels containing a sponge treated with sugar solution and the desired concentration of active compound formulation are populated with 10 adult houseflies (Musca domestica). After 2 days, the kill rate in % is determined relative to the untreated control. 100% means that all of the flies have been killed; 0% means that none of the flies have been killed.

CCS(=O)(=O)c1ccc(-n2ncn(-c3ccc(Cl)cc3)c2=O)nc1-c1nc2cc(C(F)(F)C(F)(F)F)cnc2n1C [Example I-23]
100%: efficacy [1] | Emax at 0.8 ppm [2] | efficacy (kill rate) [3]
